ChEMBL document CHEMBL3272267, “Synthesis and antiinflammatory and hypnotic activity of 5-alkoxy-3-(N-substituted carbamoyl)-1-phenylpyrazoles” (J Med Chem, 1977)

Tests used:
Rattus norvegicus = assay: Antiinflammatory activity in Wistar rat assessed as inhibition of carrageenan-induced hind paw edema at 100 mg/kg, po administered as gum arabic suspension 30 mins prior to carrageenin injection measured 3 hrs post-carrageenin injection; assay type: functional
Mus musculus = assay: Hypnotic activity in ip dosed ddN mouse assessed as loss of righting reflex administered as gum arabic suspension measured within 60 mins; assay type: functional
[1] = Acute toxicity in po dosed mouse; assay type: organism-based; conditions: in vivo

SMILES: CCCOc1cc(C(=O)N(C)C)nn1-c1ccccc1
- inhibition in vivo at 100 mg/kg (Rattus norvegicus): 26.2%
- HD50 (Mus musculus): 27 mg/kg
- LD50 [1]: 320 mg/kg

SMILES: CCCCOc1cc(C(=O)N2CCN(CCOC(C)=O)CC2)nn1-c1ccccc1
- inhibition in vivo at 100 mg/kg (Rattus norvegicus): 43.9%

SMILES: CCCCOc1cc(C(=O)N(C)CCN(CC)CC)nn1-c1ccccc1
- inhibition in vivo at 100 mg/kg (Rattus norvegicus): 29.5%

SMILES: CCCCOc1cc(C(=O)N2CCN(CCOC(=O)CC)CC2)nn1-c1ccccc1
- inhibition in vivo at 100 mg/kg (Rattus norvegicus): 0%

SMILES: COc1cc(C(=O)N2CCN(CCO)CC2)nn1-c1ccccc1
- inhibition in vivo at 100 mg/kg (Rattus norvegicus): 10.3%

SMILES: COc1cc(C(=O)N2CCOCC2)nn1-c1ccccc1
- inhibition in vivo at 100 mg/kg (Rattus norvegicus): 73.8%

SMILES: CCCCOc1cc(C(=O)N2CCN(CCOC(=O)c3ccccc3)CC2)nn1-c1ccccc1
- inhibition in vivo at 100 mg/kg (Rattus norvegicus): 5.9%

SMILES: CCCOc1cc(C(=O)N2CCOCC2)nn1-c1ccccc1
- inhibition in vivo at 100 mg/kg (Rattus norvegicus): 23.5%

SMILES: COc1cc(C(=O)Nc2cccc(C(F)(F)F)c2)nn1-c1ccccc1
- inhibition in vivo at 100 mg/kg (Rattus norvegicus): 20.9%

SMILES: CCCCOc1cc(C(=O)NC)nn1-c1ccccc1
- inhibition in vivo at 100 mg/kg (Rattus norvegicus): 65%
- HD50 (Mus musculus): 48 mg/kg
- LD50 [1]: 325 mg/kg

SMILES: CC(C)CCOc1cc(C(=O)N(C)C)nn1-c1ccccc1
- inhibition in vivo at 100 mg/kg (Rattus norvegicus): 25.3%
- HD50 (Mus musculus): 47 mg/kg
- LD50 [1]: 350 mg/kg

SMILES: COc1cc(C(=O)N2CCCC2)nn1-c1ccccc1
- inhibition in vivo at 100 mg/kg (Rattus norvegicus): 29.2%

SMILES: CCCCOc1cc(C(=O)N2CCN(C)CC2)nn1-c1ccccc1
- inhibition in vivo at 100 mg/kg (Rattus norvegicus): 32.3%

SMILES: CN1C(=O)NC(=O)C(C)(C2=CCCCC2)C1=O (stereo not drawn) [HEXOBARBITAL]
- HD50 (Mus musculus): 91 mg/kg
- LD50 [1]: 745 mg/kg

SMILES: COc1cc(C(=O)Nc2ccccc2C(=O)O)nn1-c1ccccc1
- inhibition in vivo at 100 mg/kg (Rattus norvegicus): 24.1%

SMILES: COc1cc(C(N)=O)nn1-c1ccccc1
- inhibition in vivo at 100 mg/kg (Rattus norvegicus): 34.3%

SMILES: CCCCOc1cc(C(=O)N2CCN(C(=O)c3cc(OCCCC)n(-c4ccccc4)n3)CC2)nn1-c1ccccc1
- inhibition in vivo at 100 mg/kg (Rattus norvegicus): 0%

SMILES: CCCCOc1cc(C(=O)NCCCN(C)C)nn1-c1ccccc1
- inhibition in vivo at 100 mg/kg (Rattus norvegicus): 29.8%

SMILES: COc1cc(C(=O)N(C)C)nn1-c1ccccc1
- inhibition in vivo at 100 mg/kg (Rattus norvegicus): 47.5%
- HD50 (Mus musculus): 90 mg/kg
- LD50 [1]: 385 mg/kg

SMILES: Cc1c(N(C)C)c(=O)n(-c2ccccc2)n1C [AMINOPYRINE]
- inhibition in vivo at 100 mg/kg (Rattus norvegicus): 66%

SMILES: COc1cc(C(=O)N2CCN(C)CC2)nn1-c1ccccc1
- inhibition in vivo at 100 mg/kg (Rattus norvegicus): 56.8%

SMILES: CC(C)Oc1cc(C(=O)N(C)C)nn1-c1ccccc1
- inhibition in vivo at 100 mg/kg (Rattus norvegicus): 43.9%
- HD50 (Mus musculus): 49 mg/kg
- LD50 [1]: 525 mg/kg

SMILES: CCCCNC(=O)c1cc(OCCCC)n(-c2ccccc2)n1
- inhibition in vivo at 100 mg/kg (Rattus norvegicus): 43.3%
- HD50 (Mus musculus): 70 mg/kg
- LD50 [1]: 370 mg/kg

SMILES: CCCCOc1cc(C(=O)Nc2ccccc2C(=O)O)nn1-c1ccccc1
- inhibition in vivo at 100 mg/kg (Rattus norvegicus): 0%

SMILES: COc1cc(C(=O)N2CCCCC2)nn1-c1ccccc1
- inhibition in vivo at 100 mg/kg (Rattus norvegicus): 28.2%

SMILES: CNC(=O)c1cc(OC)n(-c2ccccc2)n1
- inhibition in vivo at 100 mg/kg (Rattus norvegicus): 57.9%

SMILES: CCOc1cc(C(=O)N(C)C)nn1-c1ccccc1
- inhibition in vivo at 100 mg/kg (Rattus norvegicus): 65.8%
- HD50 (Mus musculus): 26 mg/kg
- LD50 [1]: 330 mg/kg

SMILES: COc1cc(C(=O)N(C)c2ccc(C)cc2)nn1-c1ccccc1
- inhibition in vivo at 100 mg/kg (Rattus norvegicus): 22.3%

SMILES: CCCCOc1cc(C(=O)N2CCN(CCO)CC2)nn1-c1ccccc1
- inhibition in vivo at 100 mg/kg (Rattus norvegicus): 41.3%

SMILES: CCCCOc1cc(C(=O)NCCO)nn1-c1ccccc1
- inhibition in vivo at 100 mg/kg (Rattus norvegicus): 61.2%

SMILES: CCOc1cc(C(=O)N2CCOCC2)nn1-c1ccccc1
- inhibition in vivo at 100 mg/kg (Rattus norvegicus): 35.4%

SMILES: CCCCOc1cc(C(=O)N2CCCCC2)nn1-c1ccccc1
- inhibition in vivo at 100 mg/kg (Rattus norvegicus): 15.6%

SMILES: CCCCOc1cc(C(=O)NCCC)nn1-c1ccccc1
- inhibition in vivo at 100 mg/kg (Rattus norvegicus): 51.2%
- HD50 (Mus musculus): 39 mg/kg
- LD50 [1]: 650 mg/kg

SMILES: CCCCOc1cc(C(=O)N(C)C)nn1-c1ccccc1
- inhibition in vivo at 100 mg/kg (Rattus norvegicus): 18.7%
- HD50 (Mus musculus): 33 mg/kg
- LD50 [1]: 460 mg/kg

SMILES: CCCCCOc1cc(C(=O)N(C)C)nn1-c1ccccc1
- inhibition in vivo at 100 mg/kg (Rattus norvegicus): 20%
- HD50 (Mus musculus): 63 mg/kg
- LD50 [1]: 420 mg/kg

SMILES: CCCCOc1cc(C(=O)N2CCOCC2)nn1-c1ccccc1
- inhibition in vivo at 100 mg/kg (Rattus norvegicus): 32.9%

SMILES: CCCCOc1cc(C(=O)N(C)CCN(C)C)nn1-c1ccccc1
- inhibition in vivo at 100 mg/kg (Rattus norvegicus): 28.2%

SMILES: CCCCNC(=O)c1cc(OC)n(-c2ccccc2)n1
- inhibition in vivo at 100 mg/kg (Rattus norvegicus): 20.6%

SMILES: COc1cc(C(=O)NC(C)C)nn1-c1ccccc1
- inhibition in vivo at 100 mg/kg (Rattus norvegicus): 24.8%

SMILES: CCCCOc1cc(C(=O)NCC)nn1-c1ccccc1
- inhibition in vivo at 100 mg/kg (Rattus norvegicus): 0%
- HD50 (Mus musculus): 44 mg/kg
- LD50 [1]: 400 mg/kg

SMILES: CCCCC1C(=O)N(c2ccccc2)N(c2ccccc2)C1=O [PHENYLBUTAZONE]
- inhibition in vivo at 100 mg/kg (Rattus norvegicus): 54.5%

SMILES: CCCCOc1cc(C(N)=O)nn1-c1ccccc1
- inhibition in vivo at 100 mg/kg (Rattus norvegicus): 26.5%
- HD50 (Mus musculus): 94 mg/kg
- LD50 [1]: 360 mg/kg

SMILES: CCCCOc1cc(C(=O)NCCN(CC)CC)nn1-c1ccccc1
- inhibition in vivo at 100 mg/kg (Rattus norvegicus): 23.6%

SMILES: CCCCOc1cc(C(=O)N(CC)CC)nn1-c1ccccc1
- inhibition in vivo at 100 mg/kg (Rattus norvegicus): 44.1%

SMILES: C=CCNC(=O)c1cc(OCCCC)n(-c2ccccc2)n1
- inhibition in vivo at 100 mg/kg (Rattus norvegicus): 4.4%

SMILES: CCCCOc1cc(C(=O)NC(C)C)nn1-c1ccccc1
- inhibition in vivo at 100 mg/kg (Rattus norvegicus): 15.8%

SMILES: CCN(CC)CCNC(=O)c1cc(OC)n(-c2ccccc2)n1
- inhibition in vivo at 100 mg/kg (Rattus norvegicus): 54.1%

SMILES: CCCCOc1cc(C(=O)N2CCCC2)nn1-c1ccccc1
- inhibition in vivo at 100 mg/kg (Rattus norvegicus): 17.6%
